Patent US20260184702A1, “SYNTHESIS, PHARMACOLOGY AND USE OF NEW WATER-SOLUBLE AND SELECTIVE FMS-LIKE TYROSINE KINASE3 (FLT3) INHIBITORS” (Universität Regensburg, priority 2022, published 2026)
In brackets after ≈: the same amount, converted by molar mass. Where two headings read alike, the source gives them in different places.

Columns and labels:
[1] = Solubility test by UV-Vis spectroscopy of saturated solutions; assay type: physicochemical; settings: solvent DMSO
human FLT3-ITD = biological target: T1, human FLT3-ITD (Homo sapiens, UniProt P36888); assay: Enzymatic kinase assay FLT3 (ITD), 10-dose IC50 mode (Reaction Biology); assay type: biochemical
T1 sequence (P36888 1-993): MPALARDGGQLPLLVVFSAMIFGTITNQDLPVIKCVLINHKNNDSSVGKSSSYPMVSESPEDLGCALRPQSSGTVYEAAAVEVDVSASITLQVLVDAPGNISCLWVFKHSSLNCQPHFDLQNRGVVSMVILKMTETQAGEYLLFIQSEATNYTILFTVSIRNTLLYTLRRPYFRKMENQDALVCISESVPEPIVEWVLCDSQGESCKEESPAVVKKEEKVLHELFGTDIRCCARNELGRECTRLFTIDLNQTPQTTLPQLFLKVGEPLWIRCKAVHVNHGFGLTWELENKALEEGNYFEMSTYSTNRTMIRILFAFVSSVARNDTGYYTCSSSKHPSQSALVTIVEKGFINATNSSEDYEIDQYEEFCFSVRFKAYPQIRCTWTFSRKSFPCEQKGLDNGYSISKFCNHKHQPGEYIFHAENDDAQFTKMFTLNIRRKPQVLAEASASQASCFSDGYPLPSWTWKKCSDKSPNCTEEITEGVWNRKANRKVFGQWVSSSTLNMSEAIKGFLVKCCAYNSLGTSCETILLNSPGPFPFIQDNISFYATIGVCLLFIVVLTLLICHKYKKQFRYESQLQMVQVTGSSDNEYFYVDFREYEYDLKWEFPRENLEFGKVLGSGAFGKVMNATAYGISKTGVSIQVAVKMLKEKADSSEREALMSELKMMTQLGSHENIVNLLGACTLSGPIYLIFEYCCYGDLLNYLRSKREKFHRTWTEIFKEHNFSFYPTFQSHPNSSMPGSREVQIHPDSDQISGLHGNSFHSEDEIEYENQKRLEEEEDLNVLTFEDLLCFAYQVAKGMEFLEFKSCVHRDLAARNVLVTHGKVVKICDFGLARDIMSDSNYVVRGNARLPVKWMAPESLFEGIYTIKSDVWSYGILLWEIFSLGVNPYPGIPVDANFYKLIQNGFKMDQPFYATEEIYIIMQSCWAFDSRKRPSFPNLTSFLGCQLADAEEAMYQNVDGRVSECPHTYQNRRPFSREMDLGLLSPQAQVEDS

[2] = Solubility test by UV-Vis spectroscopy of saturated solutions; assay type: physicochemical; settings: saturated solution; for solubility: thermodynamic from solid
Protocol: All UV-Vis measurements were carried out with an Agilent Cary 60 UV-Vis 2.00 between 800-200 nm. The absorbance was measured with a scan rate of 300.0 nm/min, a data interval of 0.50 nm and an UV-Vis Average Time of 0.10 s. For all measurements a cuvette with 10 mm light path was used. A calibration curve was plotted from several different concentrations and the solubility of the respective compound was determined by measuring the absorbance of a diluted saturated solution. As a blank curve a mixture of ultrapure water and ethanol in a ratio of 1:1 or 5:95 was recorded. For the calibration curve a 100 μM or a 10 μM solution of the compound in an ultrapure water:ethanol (1:1) or (5:95)-mixture was prepared and diluted to obtain at least 6 concentrations. […] The supernatant was taken using a syringe and filtered through a syringe filter (RC Membrane). The saturated solution was diluted with ultrapure water and ethanol to obtain an appropriate concentration in a water:ethanol (1:1) or (5:95)-mixture. The long wave absorbance maximum was used for determination of the solubility (mean values, determination in triplicate). […] By plotting the concentration of the solution against the absorbance values at the previously determined wavelength maximum a calibration curve was obtained (FIG. 1B).

[3] = biological target: T2, recombinant human FLT3 (D835Y) (Homo sapiens, UniProt P36888, D835Y); assay: Enzymatic kinase assay FLT3 (D835Y), 10-dose IC50 mode (Reaction Biology); assay type: biochemical; settings: 10 μM ATP
T2 construct: purchased Reaction Biology
T2 sequence (P36888 27-993 D835Y): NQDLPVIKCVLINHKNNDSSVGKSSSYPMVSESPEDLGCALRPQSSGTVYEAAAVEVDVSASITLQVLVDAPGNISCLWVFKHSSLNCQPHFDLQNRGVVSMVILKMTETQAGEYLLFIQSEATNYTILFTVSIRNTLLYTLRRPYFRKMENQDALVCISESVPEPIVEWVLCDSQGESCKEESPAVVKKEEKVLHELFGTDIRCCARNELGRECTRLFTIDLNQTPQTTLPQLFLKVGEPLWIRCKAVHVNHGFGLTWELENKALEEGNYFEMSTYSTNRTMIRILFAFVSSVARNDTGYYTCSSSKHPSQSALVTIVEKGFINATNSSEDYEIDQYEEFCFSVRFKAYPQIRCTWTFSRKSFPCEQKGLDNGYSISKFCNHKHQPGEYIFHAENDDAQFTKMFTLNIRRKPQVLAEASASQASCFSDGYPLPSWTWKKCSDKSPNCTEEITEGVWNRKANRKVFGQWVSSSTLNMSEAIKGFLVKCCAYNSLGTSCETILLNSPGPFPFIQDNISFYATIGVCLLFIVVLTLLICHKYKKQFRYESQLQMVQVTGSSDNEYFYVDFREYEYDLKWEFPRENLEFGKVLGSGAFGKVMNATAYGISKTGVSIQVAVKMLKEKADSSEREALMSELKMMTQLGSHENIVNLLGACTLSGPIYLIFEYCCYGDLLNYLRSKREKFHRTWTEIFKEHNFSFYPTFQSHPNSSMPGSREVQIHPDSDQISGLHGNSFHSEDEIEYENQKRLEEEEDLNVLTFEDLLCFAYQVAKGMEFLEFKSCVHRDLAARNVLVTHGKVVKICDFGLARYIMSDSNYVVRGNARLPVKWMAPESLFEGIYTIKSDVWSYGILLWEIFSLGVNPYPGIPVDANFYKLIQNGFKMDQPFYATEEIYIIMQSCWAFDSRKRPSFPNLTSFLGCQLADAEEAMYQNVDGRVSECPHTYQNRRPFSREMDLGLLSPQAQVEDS

[4] = tested on: MV4-11 cells (FLT3-ITD positive); assay: Cell Titer-Glo proliferation assay with MV4-11 cells; assay type: cell-based; settings: Homo sapiens, MV4-11, 72 h
Protocol: MV4-11 cells are human acute myeloid leukemia cell lines that carry a FLT3-ITD mutation (American Type Culture Collection, ATCC, Manassas, VA, United States). Cells were cultured in IMDM medium plus 100 μg/mL penicillin, 100 μg/mL streptomycin and 10% FBS. All cells were kept at 37° C., 5% CO2.
Cell proliferation was assessed with Cell Titer-Glo® Viability Assay (Promega; Madison, WI, United States) according to the manufacturer's instructions.

[5] = 10 μM ATP; read-out: IC50 FLT3 (ITD)
[6] = ethanol, organic solvent or mixture, ethanol, read-out: Solubility Ethanol
[7] = ultrapure water, water, ultrapure water, read-out: Solubility Water

| Solubility DMSO [1] | IC50 (human FLT3-ITD; [5]) [nM] | solubility [2, 6] [µg/mL] | solubility [2, 7] [µg/mL] | IC50 ([3]; read-out: IC50 FLT3 (D835Y)) [nM] | IC50 ([4]; read-out: IC50 MV4-11 cells) [nM] | Solubility Ethanol ([2]; ethanol) [µg/mL] | Solubility Water ([2]; ultrapure water) [µg/mL] | Structure (SMILES) | IC50 (human FLT3-ITD; read-out: IC50 FLT3 (ITD); 10 μM ATP; bis(2,2,2-trifluoroacetate)) [nM] | IC50 ([3]; IC50 FLT3 (D835Y) [nM]) [nM] | IC50 ([4]; read-out: IC50 MV4-11 cells [nM]) [nM] | IC50 (human FLT3-ITD; read-out: IC50 FLT3 (ITD); 10 μM ATP) [nM] |
| --- | --- | --- | --- | --- | --- | --- | --- | --- | --- | --- | --- | --- |
| Soluble | 0.81 | 4670 (≈ 8180 µM) | < 100 | 3.83 |  |  |  | CN1CCN(Cc2c(O)ccc3[nH]c(C(=O)c4cc5cc(NC(=O)Nc6cc(C(C)(C)C)on6)ccc5o4)cc23)CC1 [Compound 33a, 1-(5-(tert-Butyl)isoxazol-3-yl)-3-(2-(5-hydroxy-4-((4-methylpiperazin-1-yl)methyl)-1H-indole-2-carbonyl)benzofuran-5-yl)urea] |  |  |  |  |
|  |  |  |  |  |  |  |  | CC(C)(C)c1cc(NC(=O)Nc2ccc3oc(C(=O)c4cc5c(CN6CCOCC6)c(OC(=O)N6CCC(N7CCCCC7)CC6)ccc5[nH]4)cc3c2)no1 [Compound 38b, 2-(5-(3-(5-(tert-Butyl)isoxazol-3-yl)ureido)benzofuran-2-carbonyl)-4-(morpholinomethyl)-1H-indol-5-yl[1,4′-bipiperidine]-1′-carboxylate bis(2,2,2-trifluoroacetate)] | 1.29 | 6.63 | 0.38 |  |
|  |  |  |  |  |  |  |  | CN1CCN(Cc2c(OC(=O)N3CCC(N4CCCCC4)CC3)ccc3[nH]c(C(=O)c4cc5cc(NC(=O)Nc6cc(C(C)(C)C)on6)ccc5o4)cc23)CC1 [Compound 41a, 2-(5-(3-(5-(tert-Butyl)isoxazol-3-yl)ureido)benzofuran-2-carbonyl)-4-((4-methylpiperazin-1-yl)methyl)-1H-indol-5-yl [1,4′-bipiperidine]-1′-carboxylate] |  | 2.46 |  | 0.7 |
| Soluble | 3.36 | 1140 (≈ 2050 µM) | < 100 | 9.55 | 0.42 |  |  | CC(C)(C)c1cc(NC(=O)Nc2ccc3oc(C(=O)c4cc5c(CN6CCNCC6)c(O)ccc5[nH]4)cc3c2)no1 [Compound 55b, 1-(5-(tert-Butyl)isoxazol-3-yl)-3-(2-(5-hydroxy-4-(piperazin-1-ylmethyl)-1H-indole-2-carbonyl)benzofuran-5-yl)urea bis(2,2,2-trifluoroacetate)] |  |  |  |  |
| Soluble | 1.47 | 2540 (≈ 4160 µM) | 220 (≈ 360 µM) | 10.8 | 0.17 |  |  | C=CC(=O)N1CCN(Cc2c(O)ccc3[nH]c(C(=O)c4cc5cc(NC(=O)Nc6cc(C(C)(C)C)on6)ccc5o4)cc23)CC1 [Compound 56b, 1-(2-(4-((4-Acryloylpiperazin-1-yl)methyl)-5-hydroxy-1H-indole-2-carbonyl)benzofuran-5-yl)-3-(5-(tert-butyl)isoxazole-3-yl)urea 2,2,2-trifluoroacetate] |  |  |  |  |
|  | 4.36 |  |  |  | 0.24 |  |  | C/C=C/C(=O)N1CCN(Cc2c(O)ccc3[nH]c(C(=O)c4cc5cc(NC(=O)Nc6cc(C(C)(C)C)on6)ccc5o4)cc23)CC1 [Compound 57a, 1-(2-(4-((4-(But-2-enoyl)piperazin-1-yl)methyl)-5-hydroxy-1H-indole-2-carbonyl)benzofuran-5-yl)-3-(5-(tert-butyl)isoxazole-3-yl)urea] |  |  |  |  |
| Soluble | 1.28 |  | < 100 | 4.23 | 0.13 | 970 (≈ 1660 µM) |  | CCN1CCN(Cc2c(O)ccc3[nH]c(C(=O)c4cc5cc(NC(=O)Nc6cc(C(C)(C)C)on6)ccc5o4)cc23)CC1 [Compound 69a, 1-(5-(tert-Butyl)isoxazol-3-yl)-3-(2-(4-((4-ethylpiperazin-1-yl)methyl)-5-hydroxy-1H-indole-2-carbonyl)benzofuran-5-yl)urea] |  |  |  |  |
| Soluble | 1.98 | 920 (≈ 1540 µM) |  | 2.6 | 0.31 |  | <100 | CC(C)N1CCN(Cc2c(O)ccc3[nH]c(C(=O)c4cc5cc(NC(=O)Nc6cc(C(C)(C)C)on6)ccc5o4)cc23)CC1 [Compound 70a, 1-(5-(tert-Butyl)isoxazol-3-yl)-3-(2-(5-hydroxy-4-((4-isopropylpiperazin-1-yl)methyl)-1H-indole-2-carbonyl)benzofuran-5-yl)urea] |  |  |  |  |
